From patent US12509445B2, “Herbicidally active 4-cyclopropyl-6-[4-(trifluormethyl)pyrazol-1-yl)]pyrimidines” (Bayer Aktiengesellschaft, priority 2019, dated 2025)

Assays:
Type in all cases: in vivo
[1] = tested on: Abutilon theophrasti (ABUTH); assay: Post-emergence herbicidal action
Procedure: (§1) Seeds of monocotyledonous and dicotyledonous weeds and crop plants are placed in sandy loam in plastic or organic plant pots, covered with soil and cultivated in a greenhouse under controlled growth conditions. 2 to 3 weeks after sowing, the test plants are treated at the one-leaf stage. The compounds of the invention, formulated in the form of wettable powders (WP) or as emulsion concentrates (EC), are then sprayed onto the green parts of the plants as aqueous suspension or emulsion with addition of 0.5% additive at a water application rate of 600 l/ha (converted). After the test plants have been kept in the greenhouse under optimum growth conditions for about 3 weeks, the activity of the preparations is rated visually in comparison to untreated controls. For example, 100% activity=the plants have died, 0% activity=like control plants.
(§2) The abbreviations used here have the following meanings: • ABUTH Abutilon theophrasti • AMARE Amaranlhus retroflexus • CYPES Cyperus serotinus • ECHCGEchinocloa crus galli • LOLRI Lolium rigidum Gaudin • PHBPU Pharbitis purpurcum • SETVI Setaria viridis • VERPE Veronica persica • ALOMY Alopccurus myosuroides • AVEFA Avena fatua • DIGSA Digitaria sanguinalis • LOLMU Lolium multiflorum • MATIN Matricaria inodora • POLCO Polygonum convolvulus • STEME Stellaria media • VIOTR Viola tricolor
(§3) The compounds according to the invention were tested by the post-emergence and pre-emergence methods under the conditions described above for comparative purposes with the structurally closest compounds known from WO 2005/089551 A1 (D1).

[2] = tested on: Alopecurus myosuroides (ALOMY); assay: Post-emergence herbicidal action
Procedure: as §1, §2, §3

Avena fatua (AVEFA) [3] = assay: Post-emergence herbicidal action
Procedure: as §1, §2, §3

[4] = tested on: Echinochloa crus-galli (ECHCG); assay: Post-emergence herbicidal action
Procedure: as §1, §2, §3

[5] = tested on: Lolium multiflorum (LOLMU); assay: Post-emergence herbicidal action
Procedure: as §1, §2, §3

[6] = tested on: Matricaria inodora (MATIN); assay: Post-emergence herbicidal action
Procedure: as §1, §2, §3

[7] = tested on: Polygonum convolvulus (POLCO); assay: Post-emergence herbicidal action; settings: 80 g of a.i./ha, comparative test
Procedure: as §1, §2, §3

Setaria viridis (SETVI) [8] = assay: Post-emergence herbicidal action
Procedure: as §1, §2, §3

Stellaria media (STEME) [9] = assay: Post-emergence herbicidal action
Procedure: as §1, §2, §3

[10] = tested on: Amaranthus retroflexus (AMARE); assay: Post-emergence herbicidal action; settings: 320 g/ha, visual rating after about 3 weeks vs untreated controls, 100% = plants have died
Procedure: as §1, §2

[11] = tested on: Pharbitis purpurea (PHBPU); assay: Post-emergence herbicidal action; settings: 320 g/ha, visual rating after about 3 weeks vs untreated controls, 100% = plants have died
Procedure: as §1, §2

Veronica persica (VERPE) [12] = assay: Post-emergence herbicidal action; settings: 320 g/ha, visual rating after about 3 weeks vs untreated controls, 100% = plants have died
Procedure: as §1, §2

Viola tricolor (VIOTR) [13] = assay: Post-emergence herbicidal action; settings: 320 g/ha, visual rating after about 3 weeks vs untreated controls, 100% = plants have died
Procedure: as §1, §2

[14] = tested on: Alopecurus myosuroides (ALOMY); assay: Pre-emergence herbicidal action
Description: as §2
(§4) Seeds of monocotyledonous and dicotyledonous weed plants and crop plants are placed in plastic or organic plant pots and covered with soil. The compounds of the invention, formulated in the form of wettable powders (WP) or as emulsion concentrates (EC), are then applied onto the surface of the covering soil as aqueous suspension or emulsion with addition of 0.5% additive at a water application rate of 600 l/ha (converted). After the treatment, the pots are placed in a greenhouse and kept under good growth conditions for the trial plants. After about 3 weeks, the effect of the preparations is scored visually in comparison with untreated controls as percentages. For example, 100% activity=the plants have died, 0% activity=like control plants.
as §3

[15] = tested on: Echinochloa crus-galli (ECHCG); assay: Pre-emergence herbicidal action
Description: as §2, §4, §3

[16] = tested on: Matricaria inodora (MATIN); assay: Pre-emergence herbicidal action
Description: as §2, §4, §3

[17] = tested on: Polygonum convolvulus (POLCO); assay: Pre-emergence herbicidal action
Description: as §2, §4, §3

Setaria viridis (SETVI) [18] = assay: Pre-emergence herbicidal action
Description: as §2, §4, §3

Stellaria media (STEME) [19] = assay: Pre-emergence herbicidal action
Description: as §2, §4, §3

Viola tricolor (VIOTR) [20] = assay: Pre-emergence herbicidal action
Description: as §2, §4, §3

[21] = tested on: Abutilon theophrasti (ABUTH); assay: Pre-emergence herbicidal action; settings: 320 g/ha, visual scoring after about 3 weeks vs untreated controls, 100% = plants have died
Description: as §2, §4

[22] = tested on: Amaranthus retroflexus (AMARE); assay: Pre-emergence herbicidal action; settings: 320 g/ha, visual scoring after about 3 weeks vs untreated controls, 100% = plants have died
Description: as §2, §4

Avena fatua (AVEFA) [23] = assay: Pre-emergence herbicidal action; settings: 320 g/ha, visual scoring after about 3 weeks vs untreated controls, 100% = plants have died
Description: as §2, §4

[24] = tested on: Cyperus serotinus (CYPES); assay: Pre-emergence herbicidal action; settings: 320 g/ha, visual scoring after about 3 weeks vs untreated controls, 100% = plants have died
Description: as §2, §4

[25] = tested on: Lolium multiflorum (LOLMU); assay: Pre-emergence herbicidal action; settings: 320 g/ha, visual scoring after about 3 weeks vs untreated controls, 100% = plants have died
Description: as §2, §4

[26] = tested on: Pharbitis purpurea (PHBPU); assay: Pre-emergence herbicidal action; settings: 320 g/ha, visual scoring after about 3 weeks vs untreated controls, 100% = plants have died
Description: as §2, §4

Veronica persica (VERPE) [27] = assay: Pre-emergence herbicidal action; settings: 320 g/ha, visual scoring after about 3 weeks vs untreated controls, 100% = plants have died
Description: as §2, §4

[28] = tested on: harmful plants such as Abutilon theophrasti, Alopecurus myosuroides, Amaranthus retroflexus, Avena fatua, Echinochloa crus-galli, Matricaria inodora, Pharbitis …; assay: Post-emergence herbicidal action, summary in text; settings: post-emergence treatment
Procedure: as §1
In this case, for example, in the post-emergence process, the compounds No. 1-001 and 111-001 have very good herbicidal activity (80% to 100% herbicidal action) against harmful plants such as Abutilon theophrasti, Alopecurus myosuroides, Amaranthus retroflexus, Avena fatua, Echinochloa crus-galli, Matricaria inodora, Pharbitis purpurea, Setaria viridis, Stellaria media, Veronica persica and Viola tricolor at an application rate of 0.32 kg of active substance or less per hectare. At the same time, some compounds according to the invention leave graminaceous crops such as barley, wheat, rye, millet/sorghum, maize, rice or sugarcane virtually undamaged when applied by the post-emergence method, even at high active compound dosages. Some substances are additionally also benign to dicotyledonous crops such as soya, cotton, oilseed rape or sugarbeet.

[29] = tested on: harmful plants such as Alopecurus myosuroides, Amaranthus retroflexus, Avena fatua, Echinochloa crus-galli, Matricaria inodora, Pharbitis purpurea, Polygonum …; assay: Pre-emergence herbicidal action, summary in text; settings: pre-emergence treatment
Description: as §4
At the same time, some compounds according to the invention leave graminaceous crops such as barley, wheat, rye, millet/sorghum, maize, rice or sugarcane virtually undamaged when applied by the pre-emergence method, even at high active compound dosages. Some compounds are additionally also benign to dicotyledonous crops such as soya, cotton, oilseed rape or sugarbeet.

[30] = 80 g of a.i./ha, comparative test
[31] = 320 g/ha, visual rating after about 3 weeks vs untreated controls, 100% = plants have died
[32] = 320 g/ha, visual scoring after about 3 weeks vs untreated controls, 100% = plants have died

For `FC(F)(F)c1cnn(-c2cc(C3CC3)nc(Oc3ccnc(C(F)(F)F)c3)n2)c1` [Example I-001, 4-cyclopropyl-6-[4-(trifluoromethyl)-1H-pyrazol-1-yl]-2-{[2-(trifluoromethyl)pyridin-4-yl]oxy}pyrimidine], which “Herbicidal action against ABUTH” value [1, 30] is on record?
The value was 90%.

What about the “Post-emergence action ABUTH” value [1, 31] of the same molecule?
The value was 100%.

And the “Herbicidal action against ALOMY” value [2, 30]?
The value was 80%.

And the “Post-emergence action ALOMY” value [2, 31]?
The value was 90%.

And the “Herbicidal action against AVEFA” value (Avena fatua (AVEFA) [3]; [30])?
The value was 80%.

What about the “Post-emergence action AVEFA” value (Avena fatua (AVEFA) [3]; [31]) of the same molecule?
Its value is 90%.

And the “Herbicidal action against ECHCG” value [4, 30]?
The value was 90%.

And the “Post-emergence action ECHCG” value [4, 31]?
The value was 90%.

What about the “Herbicidal action against LOLMU” value [5, 30] of the same molecule?
The value was 90%.

And the “Post-emergence action LOLMU” value [5, 31]?
Its value is 100%.

What about the “Herbicidal action against MATIN” value [6, 30] of the same molecule?
The value was 90%.

What about the “Post-emergence action MATIN” value [6, 31] of the same molecule?
The value was 90%.

What about the “Herbicidal action against POLCO” value [7] of the same molecule?
The value was 100%.

What about the “Herbicidal action against SETVI” value (Setaria viridis (SETVI) [8]; [30]) of the same molecule?
The value was 90%.

What about the “Post-emergence action SETVI” value (Setaria viridis (SETVI) [8]; [31]) of the same molecule?
The value was 100%.

And the “Herbicidal action against STEME” value (Stellaria media (STEME) [9]; [30])?
The value was 90%.

What about the “Post-emergence action STEME” value (Stellaria media (STEME) [9]; [31]) of the same molecule?
Its value is 100%.

What about the “Post-emergence action AMARE” value [10] of the same molecule?
Its value is 90%.

What about the “Post-emergence action PHBPU” value [11] of the same molecule?
Its value is 90%.

And the “Post-emergence action VERPE” value (Veronica persica (VERPE) [12])?
Its value is 100%.

What about the “Post-emergence action VIOTR” value (Viola tricolor (VIOTR) [13]) of the same molecule?
Its value is 100%.

And the “Herbicidal action against ALOMY” value [14, 30]?
Its value is 100%.

What about the “Pre-emergence action ALOMY” value [14, 32] of the same molecule?
Its value is 100%.

What about the “Herbicidal action against ECHCG” value [15, 30] of the same molecule?
The value was 100%.

What about the “Pre-emergence action ECHCG” value [15, 32] of the same molecule?
Its value is 100%.

What about the “Herbicidal action against MATIN” value [16, 30] of the same molecule?
Its value is 100%.

What about the “Pre-emergence action MATIN” value [16, 32] of the same molecule?
The value was 100%.

And the “Herbicidal action against POLCO” value [17, 30]?
Its value is 100%.

What about the “Pre-emergence action POLCO” value [17, 32] of the same molecule?
The value was 100%.

And the “Herbicidal action against SETVI” value (Setaria viridis (SETVI) [18]; [30])?
The value was 100%.

What about the “Pre-emergence action SETVI” value (Setaria viridis (SETVI) [18]; [32]) of the same molecule?
Its value is 100%.

And the “Herbicidal action against STEME” value (Stellaria media (STEME) [19]; [30])?
Its value is 100%.

And the “Pre-emergence action STEME” value (Stellaria media (STEME) [19]; [32])?
Its value is 100%.

And the “Herbicidal action against VIOTR” value (Viola tricolor (VIOTR) [20]; [30])?
Its value is 100%.

And the “Pre-emergence action VIOTR” value (Viola tricolor (VIOTR) [20]; [32])?
Its value is 100%.

What about the “Pre-emergence action ABUTH” value [21] of the same molecule?
The value was 90%.

What about the “Pre-emergence action AMARE” value [22] of the same molecule?
Its value is 90%.

And the “Pre-emergence action AVEFA” value (Avena fatua (AVEFA) [23])?
Its value is 100%.

And the “Pre-emergence action CYPES” value [24]?
Its value is 80%.

What about the “Pre-emergence action LOLMU” value [25] of the same molecule?
Its value is 100%.

What about the “Pre-emergence action PHBPU” value [26] of the same molecule?
The value was 100%.

And the “Pre-emergence action VERPE” value (Veronica persica (VERPE) [27])?
Its value is 100%.

What about the “herbicidal action against harmful plants (in words)” value [28] of the same molecule?
The value was “good herbicidal action”.

And the “herbicidal action against harmful plants (in words)” value [29]?
Its value is “good herbicidal action”.
